Measurements: ChEMBL document CHEMBL4024735, “Brefeldin A enhances docetaxel-induced growth inhibition and apoptosis in prostate cancer cells in monolayer and 3D cultures” (Bioorg Med Chem Lett, 2017)
Calls of active or inactive are those of the source. No cut-off for these calls is given here.

What was measured:
[1] = target: Mitogen-activated protein kinase 1 (Homo sapiens) (UniProt P28482); experiment: Inhibition of Erk2 phosphorylation in human PC3 cells at 50 nM after 24 hrs by Western blot method relative to control; assay type: cell-based
Chain of Mitogen-activated protein kinase 1 (Homo sapiens) (P28482 whole entry): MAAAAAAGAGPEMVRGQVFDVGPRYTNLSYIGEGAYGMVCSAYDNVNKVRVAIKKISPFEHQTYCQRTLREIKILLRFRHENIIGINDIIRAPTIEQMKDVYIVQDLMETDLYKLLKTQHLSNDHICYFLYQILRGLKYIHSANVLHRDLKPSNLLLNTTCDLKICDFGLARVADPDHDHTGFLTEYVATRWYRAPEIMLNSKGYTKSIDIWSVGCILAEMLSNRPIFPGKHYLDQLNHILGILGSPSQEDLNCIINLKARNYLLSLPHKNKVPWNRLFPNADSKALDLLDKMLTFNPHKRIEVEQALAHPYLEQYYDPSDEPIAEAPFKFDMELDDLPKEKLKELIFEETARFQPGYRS

PC-3 [2] = experiment: Induction of apoptosis in human PC3 cells at 50 nM after 72 hrs by propidium iodide staining based fluorescence microscopy (reference value: 1.9 +/- 0.8%); assay type: functional
PC-3 [3] = experiment: Potentiation of 2 nM docetaxel-induced apoptosis in human PC3 cells assessed as Bcl2 level at 50 nM after 24 hrs by Western blot method relative to control; assay type: functional
RWPE-1 [4] = experiment: Potentiation of 3 nM docetaxel-induced cytotoxicity against human RWPE1 cells assessed as decrease in cell viability at 50 nM after 72 hrs by trypan blue exclusion assay; assay type: cell-based; details: rwpe-1, 72 h, 0.05 µM
PC-3 [5] = experiment: Cytotoxicity against 3D culture of human PC3 cells assessed as size of tissue like structure at 50 nM administered once every alternative day for 10 days measured on post last dose by matrigel based microscopic method relative to control; assay type: functional
[6] = target: Mitogen-activated protein kinase 3 (Homo sapiens) (UniProt P27361); experiment: Potentiation of 2 nM docetaxel-induced inhibition of Erk1 phosphorylation in human PC3 cells at 50 nM after 24 hrs by Western blot method relative to control; assay type: cell-based
Chain of Mitogen-activated protein kinase 3 (Homo sapiens) (P27361 whole entry): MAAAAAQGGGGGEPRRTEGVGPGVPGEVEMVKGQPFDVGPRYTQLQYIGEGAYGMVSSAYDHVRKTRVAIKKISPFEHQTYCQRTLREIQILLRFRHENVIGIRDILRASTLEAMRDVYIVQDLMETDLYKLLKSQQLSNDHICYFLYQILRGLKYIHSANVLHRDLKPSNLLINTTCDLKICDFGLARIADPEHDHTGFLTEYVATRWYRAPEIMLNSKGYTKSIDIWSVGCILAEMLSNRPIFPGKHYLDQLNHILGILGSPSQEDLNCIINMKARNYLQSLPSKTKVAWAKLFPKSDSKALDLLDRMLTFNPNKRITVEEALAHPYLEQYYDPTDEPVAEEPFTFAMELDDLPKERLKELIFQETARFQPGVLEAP

LNCaP [7] = experiment: Induction of apoptosis in human LNCAP cells assessed as morphological changes by propidium iodide staining based fluorescence microscopy; assay type: functional, cell-based
[8] = Drug uptake in CD2F1 mouse plasma at 26.3 mg/kg administered for 1 min via intravenous injection measured 60 mins post dose; assay type: ADME, organism-based
PC-3 [9] = experiment: Potentiation of 2 nM docetaxel-induced cytotoxicity against 3D culture of human PC3 cells assessed as size of tissue like structure at 50 nM administered once every alternative day for 10 days measured on post last dose by matrigel based microscopic method relative to control; assay type: functional
RWPE-1 [10] = experiment: Potentiation of 2 nM docetaxel-induced cytotoxicity against human RWPE1 cells assessed as decrease in cell viability at 50 nM after 72 hrs by trypan blue exclusion assay; assay type: cell-based; details: rwpe-1, 72 h, 0.05 µM
[11] = target: RAC-alpha serine/threonine-protein kinase (Homo sapiens) (UniProt P31749); experiment: Inhibition of Akt phosphorylation in human PC3 cells at 50 nM after 24 hrs by Western blot method relative to control; assay type: cell-based
Chain of RAC-alpha serine/threonine-protein kinase (Homo sapiens) (P31749 whole entry): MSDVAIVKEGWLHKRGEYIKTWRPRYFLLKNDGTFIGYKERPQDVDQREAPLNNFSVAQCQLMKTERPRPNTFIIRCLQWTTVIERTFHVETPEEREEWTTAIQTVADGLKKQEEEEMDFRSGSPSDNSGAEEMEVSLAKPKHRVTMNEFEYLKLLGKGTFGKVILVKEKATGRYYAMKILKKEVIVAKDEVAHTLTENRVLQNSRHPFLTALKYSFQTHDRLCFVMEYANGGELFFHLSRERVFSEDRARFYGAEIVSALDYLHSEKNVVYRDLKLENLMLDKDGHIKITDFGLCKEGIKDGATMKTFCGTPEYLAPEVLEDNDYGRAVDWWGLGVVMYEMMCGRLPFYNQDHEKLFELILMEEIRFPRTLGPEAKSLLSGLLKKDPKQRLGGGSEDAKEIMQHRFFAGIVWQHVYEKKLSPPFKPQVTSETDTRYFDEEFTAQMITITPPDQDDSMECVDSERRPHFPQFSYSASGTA

[12] = target: RAC-alpha serine/threonine-protein kinase (Homo sapiens) (UniProt P31749); experiment: Potentiation of 2 nM docetaxel-induced inhibition of Akt phosphorylation in human PC3 cells at 50 nM after 24 hrs by Western blot method relative to control; assay type: cell-based
PC-3 [13] = experiment: Induction of apoptosis in human PC3 cells assessed as morphological changes by propidium iodide staining based fluorescence microscopy; assay type: functional, cell-based
[14] = target: Mitogen-activated protein kinase 1 (Homo sapiens) (UniProt P28482); experiment: Potentiation of 2 nM docetaxel-induced inhibition of Erk2 phosphorylation in human PC3 cells at 50 nM after 24 hrs by Western blot method relative to control; assay type: cell-based
PC-3 [15] = experiment: Potentiation of 2 nM docetaxel-induced cytotoxicity against human PC3 cells assessed as cell viability at 50 nM after 72 hrs by trypan blue exclusion assay relative to control; assay type: functional
PC-3 [16] = experiment: Cytotoxicity against human PC3 cells assessed as cell viability at 50 nM after 72 hrs by trypan blue exclusion assay relative to control; assay type: functional; details: PC-3, 72 h, read-out: Activity
PC-3 [17] = experiment: Induction of apoptosis in human PC3 cells assessed as Bcl2 level at 50 nM after 24 hrs by Western blot method relative to control; assay type: functional
RWPE-1 [18] = experiment: Cytotoxicity against human RWPE1 cells at >=100 nM after 72 hrs by tryphan blue exclusion assay; assay type: cell-based; details: rwpe-1, 72 h
[19] = Selectivity ratio for potentiation of 2 nM docetaxel-induced cytotoxicity against human PC3 cells to potentiation of 2 nM docetaxel-induced cytotoxicity against human RWPE1 cells
PC-3 [20] = experiment: Potentiation of 2 nM docetaxel-induced apoptosis in human PC3 cells at 50 nM after 72 hrs by propidium iodide staining based fluorescence microscopy (reference value: 1.9 +/- 0.8%); assay type: functional
LNCaP [21] = experiment: Cytotoxicity against human LNCAP cells assessed as decrease in cell viability after 72 hrs by trypan blue exclusion assay; assay type: functional, cell-based
PC-3 [22] = experiment: Cytotoxicity against human PC3 cells assessed as decrease in cell viability after 72 hrs by trypan blue exclusion assay; assay type: functional, cell-based
[23] = target: Mitogen-activated protein kinase 3 (Homo sapiens) (UniProt P27361); experiment: Inhibition of Erk1 phosphorylation in human PC3 cells at 50 nM after 24 hrs by Western blot method relative to control; assay type: cell-based
PC-3 [24] = experiment: Potentiation of 3 nM docetaxel-induced cytotoxicity against human PC3 cells assessed as decrease in cell viability at 50 nM after 72 hrs by trypan blue exclusion assay; assay type: functional, cell-based
PC-3 [25] = experiment: Induction of apoptosis in human PC3 cells at 2 nM after 72 hrs by propidium iodide staining based fluorescence microscopy (reference value: 1.9 +/- 0.8%); assay type: functional
[26] = target: Mitogen-activated protein kinase 3 (Homo sapiens) (UniProt P27361); experiment: Inhibition of Erk1 phosphorylation in human PC3 cells at 2 nM after 24 hrs by Western blot method relative to control; assay type: cell-based
PC-3 [27] = experiment: Cytotoxicity against human PC3 cells assessed as cell viability at 2 nM after 72 hrs by trypan blue exclusion assay relative to control; assay type: functional; details: PC-3, 72 h, read-out: Activity
Plasma = experiment: Drug uptake in cancer patient plasma at 35 mg/m2, iv administered once every week via infusion measured on day 8 by HPLC-TMS; assay type: ADME, organism-based; details: human, in vivo
[28] = target: Mitogen-activated protein kinase 1 (Homo sapiens) (UniProt P28482); experiment: Inhibition of Erk2 phosphorylation in human PC3 cells at 2 nM after 24 hrs by Western blot method relative to control; assay type: cell-based
[29] = target: RAC-alpha serine/threonine-protein kinase (Homo sapiens) (UniProt P31749); experiment: Inhibition of Akt phosphorylation in human PC3 cells at 2 nM after 24 hrs by Western blot method relative to control; assay type: cell-based
PC-3 [30] = experiment: Cytotoxicity against human PC3 cells; assay type: functional, cell-based
PC-3 [31] = experiment: Cytotoxicity against 3D cultures of human PC3 cells assessed as size of tissue-like structure at 2 nM administered once every alternative day for 10 days measured on post last dose by matrigel based microscopic method relative to control; assay type: functional
[32] = Drug uptake in patient plasma at 20 mg/m2, iv administered for 1 hr as infusion measured 72 hrs post dose; assay type: ADME, organism-based; details: human
PC-3 [33] = experiment: Induction of apoptosis in human PC3 cells assessed as Bcl2 level at 2 nM after 24 hrs by Western blot method relative to control; assay type: functional
RWPE-1 [34] = experiment: Cytotoxicity against human RWPE1 cells at 5 to 10 nM after 72 hrs by trypan blue exclusion assay; assay type: cell-based; details: rwpe-1, 72 h, 0.01 µM

## C[C@H]1CCC/C=C/[C@@H]2C[C@H](O)C[C@H]2[C@H](O)/C=C/C(=O)O1 [BREFELDIN A]
[1]
  fold change (FC): 0.97
PC-3 [2]
  Activity: 18%
PC-3 [3]
  fold change (FC): 0.32
RWPE-1 [4]
  Activity: Toxic
PC-3 [5]
  Activity: 79.3%
[6]
  fold change (FC): 0.93
LNCaP [7]
  Activity: Dose-dependent effect
[8]
  concentration at 1 h: 700 nM
PC-3 [9]
  Activity: 38.8%
RWPE-1 [10]
  Activity: Toxic
[11]
  fold change (FC): 0.99
[12]
  fold change (FC): 0.97
PC-3 [13]
  Activity: Dose-dependent effect
[14]
  fold change (FC): 0.96
PC-3 [15]
  Activity: 48.4%
PC-3 [16]
  viability at 0.05 µM: 83.4%
PC-3 [17]
  fold change (FC): 0.99
RWPE-1 [18]
  Activity: Toxic
[19]
  Selectivity ratio: 4
PC-3 [20]
  Activity: 51.2%
LNCaP [21]
  Activity: Dose-dependent effect
PC-3 [22]
  Activity: Dose-dependent effect
[23]
  fold change (FC): 0.99
PC-3 [24]
  Activity: Active

## CC(=O)O[C@@]12CO[C@@H]1C[C@H](O)[C@@]1(C)C(=O)[C@H](O)C3=C(C)[C@@H](OC(=O)[C@H](O)[C@@H](NC(=O)OC(C)(C)C)c4ccccc4)C[C@@](O)([C@@H](OC(=O)c4ccccc4)[C@H]21)C3(C)C [DOCETAXEL ANHYDROUS]
PC-3 [25]
  Activity: 14.5%
LNCaP [7]
  Activity: Dose-dependent effect
RWPE-1 [10]
  Activity: Toxic
[26]
  fold change (FC): 0.95
PC-3 [27]
  viability at 0.002 µM: 86.7%
Plasma
  concentration: 1.79 nM
[28]
  fold change (FC): 0.96
PC-3 [13]
  Activity: Dose-dependent effect
[29]
  fold change (FC): 1.01
PC-3 [30]
  IC50: 5 to 24 nM
PC-3 [31]
  Activity: 83.1%
[32]
  concentration at 72 h: 2.8 nM
PC-3 [33]
  fold change (FC): 0.71
LNCaP [21]
  Activity: Dose-dependent effect
PC-3 [22]
  Activity: Dose-dependent effect
PC-3 [22]; PC-3, 72 h
  IC50: 8 nM
PC-3 [24]
  Activity: Active
RWPE-1 [34]
  Activity: Toxic
